By IC50 is commonly meant the concentration needed to halve the response being measured. Read a high IC50 as lower potency. What is called inhibition is the percentage by which the read-out fell short of the control.

Calls of active or inactive are those of the source. The calls are words filed in the database; no cut-off is given here.

Data set [1] concerns the target T1, Protein deacetylase HDAC6 (Homo sapiens, UniProt Q9UBN7).
T1 sequence (Q9UBN7 whole entry): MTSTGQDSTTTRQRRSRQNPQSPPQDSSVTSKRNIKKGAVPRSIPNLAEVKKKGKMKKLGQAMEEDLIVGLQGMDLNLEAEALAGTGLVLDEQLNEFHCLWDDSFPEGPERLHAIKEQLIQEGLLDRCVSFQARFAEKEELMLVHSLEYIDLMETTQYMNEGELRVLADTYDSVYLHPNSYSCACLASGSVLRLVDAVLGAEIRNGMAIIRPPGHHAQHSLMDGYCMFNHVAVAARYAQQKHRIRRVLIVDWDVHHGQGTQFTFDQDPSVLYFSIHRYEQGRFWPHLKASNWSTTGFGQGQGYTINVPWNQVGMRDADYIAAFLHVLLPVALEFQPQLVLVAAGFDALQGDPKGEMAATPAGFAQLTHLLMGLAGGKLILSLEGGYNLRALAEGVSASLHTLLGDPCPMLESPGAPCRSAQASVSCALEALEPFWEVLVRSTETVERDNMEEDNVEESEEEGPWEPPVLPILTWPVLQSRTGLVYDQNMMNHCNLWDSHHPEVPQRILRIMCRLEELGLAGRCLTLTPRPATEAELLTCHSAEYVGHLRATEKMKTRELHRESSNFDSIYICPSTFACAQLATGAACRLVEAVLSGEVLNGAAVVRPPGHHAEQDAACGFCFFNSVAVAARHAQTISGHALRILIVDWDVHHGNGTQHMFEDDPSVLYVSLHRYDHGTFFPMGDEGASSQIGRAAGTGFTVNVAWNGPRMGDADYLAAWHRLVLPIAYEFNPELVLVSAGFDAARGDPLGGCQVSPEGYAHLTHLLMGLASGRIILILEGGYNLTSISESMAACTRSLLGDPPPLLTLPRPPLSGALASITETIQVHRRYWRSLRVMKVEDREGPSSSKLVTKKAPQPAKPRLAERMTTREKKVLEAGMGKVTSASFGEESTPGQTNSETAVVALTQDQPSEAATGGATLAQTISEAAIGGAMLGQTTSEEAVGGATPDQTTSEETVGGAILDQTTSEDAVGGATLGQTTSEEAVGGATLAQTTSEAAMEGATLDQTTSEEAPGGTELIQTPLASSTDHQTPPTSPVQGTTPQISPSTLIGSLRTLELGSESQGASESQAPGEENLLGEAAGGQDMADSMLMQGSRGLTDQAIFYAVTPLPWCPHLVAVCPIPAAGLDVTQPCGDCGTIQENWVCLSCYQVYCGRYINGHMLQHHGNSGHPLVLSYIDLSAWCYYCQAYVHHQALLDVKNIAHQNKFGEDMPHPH
Kind of data set: Inhibition of HDAC6 (unknown origin) incubated for 30 mins by fluorometric analysis.

Data set [2] is described as follows: Toxicity against bleomycin-induced pulmonary fibrosis C57BL/6J mouse model assessed as effect on kidney morphological changes at 25 to 50 mg/kg, ig administered daily via gavage and measured on day 14 by Hematoxylin-Eosin staining based analysis. Format: organism-based. As to conditions: in vivo, po, 336 h, dose 25-50 mg/kg, time 14 day.
For data set [3], the system named is Mus musculus. Kind of data set: Anti-pulmonary fibrosis activity in bleomycin-induced idiopathic pulmonary fibrosis C57BL/6J mouse model assessed as decrease in weight loss at 50 mg/kg, ig administered daily via gavage and measured for 14 days. Format: functional, organism-based. The note with it: time 14.0 day.
Data set [4] deals with Mus musculus. Kind of data set: Anti-pulmonary fibrosis activity in bleomycin-induced idiopathic pulmonary fibrosis C57BL/6J mouse model assessed as decrease in collagen I protein expression in lung at 25 mg/kg, ig administered daily via gavage measured after 14 days by western blot analysis. Format: functional, organism-based. The note with it: time 14.0 day.
For data set [5], the target named is T2, Protein deacetylase HDAC6 (Mus musculus) (UniProt Q9Z2V5).
T2 sequence (whole entry): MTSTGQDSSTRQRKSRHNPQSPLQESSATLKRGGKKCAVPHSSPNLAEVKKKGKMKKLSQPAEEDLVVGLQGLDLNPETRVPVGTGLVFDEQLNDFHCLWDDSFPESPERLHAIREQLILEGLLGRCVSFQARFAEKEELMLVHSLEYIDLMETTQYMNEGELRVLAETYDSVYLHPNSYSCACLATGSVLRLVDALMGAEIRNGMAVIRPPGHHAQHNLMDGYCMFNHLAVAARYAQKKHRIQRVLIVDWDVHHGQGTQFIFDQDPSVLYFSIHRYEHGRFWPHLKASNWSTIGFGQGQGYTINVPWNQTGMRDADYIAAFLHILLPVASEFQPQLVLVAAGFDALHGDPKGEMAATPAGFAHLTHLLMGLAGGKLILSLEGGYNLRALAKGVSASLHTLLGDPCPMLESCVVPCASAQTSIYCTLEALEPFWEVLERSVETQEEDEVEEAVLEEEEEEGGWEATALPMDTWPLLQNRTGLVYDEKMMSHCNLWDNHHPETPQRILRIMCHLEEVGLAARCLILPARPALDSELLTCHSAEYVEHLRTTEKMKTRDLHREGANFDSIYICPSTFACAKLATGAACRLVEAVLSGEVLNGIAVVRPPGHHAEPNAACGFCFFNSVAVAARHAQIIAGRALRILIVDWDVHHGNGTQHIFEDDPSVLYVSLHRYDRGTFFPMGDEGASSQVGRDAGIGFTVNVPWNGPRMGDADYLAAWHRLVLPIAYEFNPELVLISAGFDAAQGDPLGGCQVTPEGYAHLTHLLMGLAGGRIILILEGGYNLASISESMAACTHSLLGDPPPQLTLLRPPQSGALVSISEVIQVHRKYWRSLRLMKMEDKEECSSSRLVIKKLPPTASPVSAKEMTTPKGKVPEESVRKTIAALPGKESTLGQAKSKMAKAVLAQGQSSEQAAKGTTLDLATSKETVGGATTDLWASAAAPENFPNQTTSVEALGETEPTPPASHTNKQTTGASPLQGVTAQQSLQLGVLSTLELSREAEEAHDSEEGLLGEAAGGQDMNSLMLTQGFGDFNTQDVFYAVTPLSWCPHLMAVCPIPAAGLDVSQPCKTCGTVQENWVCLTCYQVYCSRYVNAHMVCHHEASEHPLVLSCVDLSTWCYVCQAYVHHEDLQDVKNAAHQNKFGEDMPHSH
Kind of data set: In vivo inhibition of HDAC6 in bleomycin-induced idiopathic pulmonary fibrosis C57BL/6J mouse model assessed as increase in acetylated alpha-tubulin level in lung at 25 mg/kg, ig administered via gavage and measured on day 14 by western blot analysis. The format is functional, organism-based. The note with it: time 14.0 day. In general terms: A western blot detects proteins with antibodies after separation by electrophoresis.

Data set [6] in a line: Toxicity against bleomycin-induced pulmonary fibrosis C57BL/6J mouse model assessed as increase AST index in serum at 50 mg/kg, ig administered daily via gavage and measured on day 14. The format is organism-based. As to conditions: in vivo, po, 336 h, time 14 day.
In data set [7] the target is T3, Protein deacetylase HDAC6 (Homo sapiens) (UniProt Q9UBN7).
T3 sequence (whole entry): T1 sequence (Q9UBN7 whole entry)
Kind of data set: Inhibition of HDAC6 in human RPMI-8226 cells assessed as increase in acetylated alpha-tubulin level at 1 uM incubated for 24 hrs by western blot analysis. The format is cell-based.

For data set [8], the target named is Histone deacetylase 1 (Homo sapiens) (UniProt Q13547). Kind of data set: Inhibition of HDAC1 (unknown origin) at 1 uM incubated for 30 mins by fluorometric analysis.
Histone deacetylase 1 (Homo sapiens), sequence (Q13547 whole entry): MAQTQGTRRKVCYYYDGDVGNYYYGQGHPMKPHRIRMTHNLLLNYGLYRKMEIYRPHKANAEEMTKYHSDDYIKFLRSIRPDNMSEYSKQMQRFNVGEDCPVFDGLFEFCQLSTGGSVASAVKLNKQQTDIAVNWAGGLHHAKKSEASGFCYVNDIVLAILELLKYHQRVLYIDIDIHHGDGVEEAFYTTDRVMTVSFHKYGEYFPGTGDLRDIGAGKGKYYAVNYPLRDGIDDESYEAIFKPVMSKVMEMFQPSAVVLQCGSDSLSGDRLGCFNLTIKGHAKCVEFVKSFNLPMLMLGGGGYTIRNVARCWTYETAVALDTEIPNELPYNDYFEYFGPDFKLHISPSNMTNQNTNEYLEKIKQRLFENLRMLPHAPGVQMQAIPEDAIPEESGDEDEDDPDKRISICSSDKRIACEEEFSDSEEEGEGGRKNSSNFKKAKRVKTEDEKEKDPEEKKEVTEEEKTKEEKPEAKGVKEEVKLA

`O=C(NO)c1ccc(CN2C(=O)C3=C(CCN(Cc4cccc(Cl)c4)C3)N3CCN=C23)cc1` had an IC50 in data set [1] of 42.9 nM. The Activity result in data set [2] was “Non-toxic”; in data set [4], “Active; Superior Activity Compared To Positive Drug, Acy-1215”; in data set [6], “Toxic”. The result in data set [3] was Active. Besides, the inhibition result in data set [5] was “inactive”. For the same compound, the inhibition result in data set [7] was “Active; Intensity Of Increase Slightly Lower Than Positive Drug, Acy-1215”; in data set [8] it was 56.1%.

For the origin of these results see ChEMBL document CHEMBL6092154, “Design, synthesis, and evaluation of a novel TRAIL-activated HDAC6 inhibitor for the treatment of pulmonary fibrosis” (Bioorg Med Chem, 2024).
